{"source": "PubChem BioAssay AID602187", "about": "(Broad Institute, 2012)", "note": "The source made the active and inactive calls.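 The calls were made as follows: active = compounds lowering yeast growth whose fitted half-maximal concentration is at most twice the top tested dose; inconclusive = flat partial growth drop between 30 and 70 percent, or poor fit; inactive = the rest.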", "data": [{"test_system": "not listed separately", "assay": "yeast fermentative growth inhibition – glucose medium, OD600, dry powder, dose response (AID 602187)", "settings": "S. cerevisiae growth in glucose medium, OD600, 48 h; at 19.5 µM (top of the series)", "values": [{"smiles": "Oc1c(C(c2ccc(Cl)cc2)N2CCCC2)ccc2cccnc12", "note": "(centres undefined)", "activity change, negative = inhibition": "7.98% (inactive)"}, {"smiles": "CCOC(=O)N1C(=O)C2(CCCCC2)N(c2ccc(C)cc2)C1=S", "activity change, negative = inhibition": "13.1% (inactive)"}, {"smiles": "C/C(=N\\NC(=O)c1cc2ccccc2cc1O)c1ccccn1", "activity change, negative = inhibition": "-15% (inactive)"}, {"smiles": "Cc1cc(C)n(-c2nc3ccccc3c(=O)n2OCC#N)n1", "activity change, negative = inhibition": "-16.8% (inactive)"}, {"smiles": "O=C(Nc1nc(-c2ccc3c(c2)CCCC3)cs1)c1ccccc1", "activity change, negative = inhibition": "34% (inactive)"}, {"smiles": "COc1ccc(-c2nnc(NC(=O)c3ccc(S(=O)(=O)N4CCCc5ccccc54)cc3)o2)cc1", "activity change, negative = inhibition": "19.9% (inactive)"}, {"smiles": "O=C(Nc1nc(-c2ccccn2)cs1)c1ccccc1", "activity change, negative = inhibition": "-9.7% (inactive)"}, {"smiles": "O=C(Nc1nnc(-c2ccc3c(c2)CCCC3)o1)c1ccccc1", "activity change, negative = inhibition": "-13.1% (inactive)"}, {"smiles": "Cc1ccc(C(=O)Nc2nnc(-c3ccccc3)o2)cc1C", "activity change, negative = inhibition": "28.3% (inactive)"}, {"smiles": "NC(=O)c1cccc(C(=O)Nc2nc(-c3ccc4c(c3)CCCC4)cs2)c1", "activity change, negative = inhibition": "9.9% (inactive)"}, {"smiles": "O=C(Nc1nc(-c2ccccc2)cs1)c1ccc(Br)s1", "activity change, negative = inhibition": "25.4% (inactive)"}, {"smiles": "O=C(Nc1nnc(-c2ccc3c(c2)CCCC3)o1)c1ccc(Cl)cc1Cl", "activity change, negative = inhibition": "-3.17% (inactive)"}]}, {"test_system": "not listed separately", "assay": "yeast fermentative growth inhibition – glucose medium, OD600, dry powder, dose response (AID 602187)", "settings": "S. cerevisiae growth in glucose medium, OD600, 48 h; at 23.5 µM (top of the series)", "values": [{"smiles": "Oc1c(CN2CCN(c3ccccc3)CC2)cc(Cl)c2cccnc12", "activity change, negative = inhibition": "11.7% (inactive)"}]}, {"test_system": "S. cerevisiae growth in glucose medium, OD600, 48 h", "assay": "yeast fermentative growth inhibition – glucose medium, OD600, dry powder, dose response (AID 602187)", "settings": "not given", "units": {"AC50": "µM"}, "values": [{"smiles": "O=C(Nc1nc(-c2ccccn2)cs1)c1ccc(Br)s1", "AC50": 0.737}, {"smiles": "Cc1ccc(C(=O)Nc2nc(-c3ccccn3)cs2)cc1", "AC50": 6.06}, {"smiles": "O=C(Oc1c(Cl)cc(Cl)c2cccnc12)c1ccco1", "AC50": 0.346}, {"smiles": "O=C(Nc1nc(-c2ccccn2)cs1)c1ccc(Cl)s1", "AC50": 1.75}, {"smiles": "Oc1c(CN2CCc3ccccc3C2)cc(Cl)c2cccnc12", "AC50": 15.3}, {"smiles": "CN1CCN(C(c2ccc(C(F)(F)F)cc2)c2ccc3cccnc3c2O)CC1", "note": "(centres undefined)", "AC50": 3.32}, {"smiles": "Oc1c(C(c2ccccc2Cl)N2CCCCC2)ccc2cccnc12", "note": "(centres undefined)", "AC50": 16.3}, {"smiles": "C=CCNC(=S)N/N=C(\\C)c1ccccn1", "AC50": 6.93}, {"smiles": "CCCC(=O)NC(c1cccs1)c1cc(Cl)c2cccnc2c1O", "note": "(centres undefined)", "AC50": 5.88}, {"smiles": "Cc1ccc(-c2nc3c(Cl)cc(Cl)cc3c(=O)n2O)cc1", "AC50": 2.01}, {"smiles": "O=C(NNC(=S)Nc1ccc(Cl)c(Cl)c1)c1ccccn1", "AC50": 22}]}]}
